Measurements taken from PubChem BioAssay (NCI).
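Five compound concentrations were applied to cells in 96-well plates for 48 hours; endpoints were derived by simple linear interpolation of the resulting dose-response curve. GI50 marks 50% less growth. Definition used: TGI = concentration required for complete inhibition of growth.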

Columns and labels:
Experiment in all cases: DTP human tumour cell line panel, 48 h
SK-MEL-5 melanoma = test system: SK-MEL-5 melanoma
SK-MEL-28 melanoma = test system: SK-MEL-28 melanoma
RPMI-8226 leukemia = test system: RPMI-8226 leukemia
LOX IMVI melanoma = test system: LOX IMVI melanoma
MOLT-4 leukemia = test system: MOLT-4 leukemia
CAKI-1 renal = test system: CAKI-1 renal
K-562 leukemia = test system: K-562 leukemia
T-47D breast = test system: T-47D breast
OVCAR-5 ovarian = test system: OVCAR-5 ovarian
NCI-H226 lung = test system: NCI-H226 lung
TK-10 renal = test system: TK-10 renal
UO-31 renal = test system: UO-31 renal
SN12C renal = test system: SN12C renal
U251 CNS = test system: U251 CNS
SF-295 CNS = test system: SF-295 CNS
786-0 renal = test system: 786-0 renal
NCI-H460 lung = test system: NCI-H460 lung
ACHN renal = test system: ACHN renal
OVCAR-3 ovarian = test system: OVCAR-3 ovarian
PC-3 prostate = test system: PC-3 prostate
COLO 205 colon = test system: COLO 205 colon
HCC-2998 colon = test system: HCC-2998 colon
M14 melanoma = test system: M14 melanoma
KM12 colon = test system: KM12 colon
SNB-19 CNS = test system: SNB-19 CNS
MALME-3M melanoma = test system: MALME-3M melanoma
SF-268 CNS = test system: SF-268 CNS
HCT-116 colon = test system: HCT-116 colon
CCRF-CEM leukemia = test system: CCRF-CEM leukemia
RXF 393 renal = test system: RXF 393 renal
HOP-92 NSCLC = test system: HOP-92 NSCLC
HT29 colon = test system: HT29 colon
SW-620 colon = test system: SW-620 colon
UACC-257 melanoma = test system: UACC-257 melanoma
SR leukemia = test system: SR leukemia
DU-145 prostate = test system: DU-145 prostate
HS 578T breast = test system: HS 578T breast
HOP-62 NSCLC = test system: HOP-62 NSCLC
NCI-H522 lung = test system: NCI-H522 lung
A549 NSCLC = test system: A549 NSCLC
EKVX NSCLC = test system: EKVX NSCLC
OVCAR-8 ovarian = test system: OVCAR-8 ovarian
A498 renal = test system: A498 renal
BT-549 breast = test system: BT-549 breast
NCI/ADR-RES ovarian = test system: NCI/ADR-RES ovarian
OVCAR-4 ovarian = test system: OVCAR-4 ovarian
UACC-62 melanoma = test system: UACC-62 melanoma
SF-539 CNS = test system: SF-539 CNS
MDA-MB-435 = test system: MDA-MB-435
SK-MEL-2 melanoma = test system: SK-MEL-2 melanoma
IGROV1 ovarian = test system: IGROV1 ovarian
HCT-15 colon = test system: HCT-15 colon
SNB-75 CNS = test system: SNB-75 CNS
HL-60(TB) leukemia = test system: HL-60(TB) leukemia
NCI-H23 lung = test system: NCI-H23 lung
MDA-MB-231 breast = test system: MDA-MB-231 breast
MCF7 breast = test system: MCF7 breast
SK-OV-3 ovarian = test system: SK-OV-3 ovarian

CCCS(=O)(=O)Nc1ccc(F)c(C(=O)c2c[nH]c3ncc(Cl)cc23)c1F
GI50 (SK-MEL-5 melanoma): 1.24 µM
TGI (SK-MEL-5 melanoma): 19 µM
GI50 (SK-MEL-28 melanoma): 0.109 µM
TGI (SK-MEL-28 melanoma): 9.62 µM
GI50 (RPMI-8226 leukemia): 25.2 µM
TGI (RPMI-8226 leukemia): > 100 µM
GI50 (LOX IMVI melanoma): 2.05 µM
TGI (LOX IMVI melanoma): 31.1 µM
GI50 (MOLT-4 leukemia): 14.7 µM
TGI (MOLT-4 leukemia): > 83 µM
GI50 (CAKI-1 renal): 3.65 µM
TGI (CAKI-1 renal): 56.9 µM
GI50 (K-562 leukemia): 9.87 µM
TGI (K-562 leukemia): > 81.5 µM
GI50 (T-47D breast): 8.55 µM
TGI (T-47D breast): 65 µM
GI50 (OVCAR-5 ovarian): 23.3 µM
TGI (OVCAR-5 ovarian): > 92.8 µM
GI50 (NCI-H226 lung): 16.2 µM
TGI (NCI-H226 lung): 78.1 µM
GI50 (TK-10 renal): 6.3 µM
TGI (TK-10 renal): 35.9 µM
GI50 (UO-31 renal): 6.4 µM
TGI (UO-31 renal): 66.3 µM
GI50 (SN12C renal): 7.66 µM
TGI (SN12C renal): 84.9 µM
GI50 (U251 CNS): 9.08 µM
TGI (U251 CNS): 60.5 µM
GI50 (SF-295 CNS): 5.35 µM
TGI (SF-295 CNS): 45.6 µM
GI50 (786-0 renal): 10.7 µM
TGI (786-0 renal): 74.9 µM
GI50 (NCI-H460 lung): 5.92 µM
TGI (NCI-H460 lung): 50.3 µM
GI50 (ACHN renal): 3.78 µM
TGI (ACHN renal): 66.4 µM
GI50 (OVCAR-3 ovarian): 15.4 µM
TGI (OVCAR-3 ovarian): 58.7 µM
GI50 (PC-3 prostate): 10.6 µM
TGI (PC-3 prostate): 77.6 µM
GI50 (COLO 205 colon): 0.116 µM
TGI (COLO 205 colon): 17.3 µM
GI50 (HCC-2998 colon): 17.7 µM
TGI (HCC-2998 colon): 72.4 µM
GI50 (M14 melanoma): 0.109 µM
TGI (M14 melanoma): 5.18 µM
GI50 (KM12 colon): 11.4 µM
TGI (KM12 colon): > 79.8 µM
GI50 (SNB-19 CNS): 29.7 µM
TGI (SNB-19 CNS): 99.7 µM
GI50 (MALME-3M melanoma): 0.0281 µM
TGI (MALME-3M melanoma): 0.174 µM
GI50 (SF-268 CNS): 13.5 µM
TGI (SF-268 CNS): 73 µM
GI50 (HCT-116 colon): 6.21 µM
TGI (HCT-116 colon): 62.7 µM
GI50 (CCRF-CEM leukemia): 16.6 µM
TGI (CCRF-CEM leukemia): 99.1 µM
GI50 (RXF 393 renal): 5.23 µM
TGI (RXF 393 renal): 22.4 µM
GI50 (HOP-92 NSCLC): 3.2 µM
TGI (HOP-92 NSCLC): 15.4 µM
GI50 (HT29 colon): 0.2 µM
TGI (HT29 colon): 21.8 µM
GI50 (SW-620 colon): 22.6 µM
TGI (SW-620 colon): 87.3 µM
GI50 (UACC-257 melanoma): 0.129 µM
TGI (UACC-257 melanoma): 1.18 µM
GI50 (SR leukemia): 4.68 µM
TGI (SR leukemia): 48 µM
GI50 (DU-145 prostate): 7.55 µM
TGI (DU-145 prostate): 80.6 µM
GI50 (HS 578T breast): 3.9 µM
TGI (HS 578T breast): 26.7 µM
GI50 (HOP-62 NSCLC): 10.2 µM
TGI (HOP-62 NSCLC): 65.8 µM
GI50 (NCI-H522 lung): 8.34 µM
TGI (NCI-H522 lung): 31.5 µM
GI50 (A549 NSCLC): 9.87 µM
TGI (A549 NSCLC): 56.5 µM
GI50 (EKVX NSCLC): 18.3 µM
TGI (EKVX NSCLC): 80.9 µM
GI50 (OVCAR-8 ovarian): 8.81 µM
TGI (OVCAR-8 ovarian): 61.8 µM
GI50 (A498 renal): 5.14 µM
TGI (A498 renal): 24 µM
GI50 (BT-549 breast): 13.3 µM
TGI (BT-549 breast): 57.9 µM
GI50 (NCI/ADR-RES ovarian): 14.8 µM
TGI (NCI/ADR-RES ovarian): > 90.3 µM
GI50 (OVCAR-4 ovarian): 9.74 µM
TGI (OVCAR-4 ovarian): 75.7 µM
GI50 (UACC-62 melanoma): 0.0639 µM
TGI (UACC-62 melanoma): 2.14 µM
GI50 (SF-539 CNS): 9.1 µM
TGI (SF-539 CNS): 57.4 µM
GI50 (MDA-MB-435): 0.337 µM
TGI (MDA-MB-435): 29.6 µM
GI50 (SK-MEL-2 melanoma): 4.37 µM
TGI (SK-MEL-2 melanoma): 16.4 µM
GI50 (IGROV1 ovarian): 5 µM
TGI (IGROV1 ovarian): 75.4 µM
GI50 (HCT-15 colon): 6.62 µM
TGI (HCT-15 colon): > 97.3 µM
GI50 (SNB-75 CNS): 4.9 µM
TGI (SNB-75 CNS): 24.8 µM
GI50 (HL-60(TB) leukemia): 20 µM
TGI (HL-60(TB) leukemia): 57.4 µM
GI50 (NCI-H23 lung): 20.7 µM
TGI (NCI-H23 lung): > 91.6 µM
GI50 (MDA-MB-231 breast): 9.09 µM
TGI (MDA-MB-231 breast): 33.7 µM
GI50 (MCF7 breast): 20.2 µM
TGI (MCF7 breast): 69.9 µM
GI50 (SK-OV-3 ovarian): 3.76 µM
TGI (SK-OV-3 ovarian): 36.5 µM
